Source: US9975853B2, “Tetrahydroisoquinolinone derivatives and their use in the inhibition of the HSP70 protein” (Julius-Maximilians-Universitaet Wuerzburg, priority 2014, dated 2018)

Test system: apoptosis-inducing factor (AIF)
Experiment: Apoptosis assay: nuclear translocation of AIF in INA-6 cells (Western blot)
Format: cell-based, human
Conditions: INA-6, 0.6 μM, 8 hours, nuclear pellets
Protocol: Apoptosis Assays. Hsp70-dependent prevention of apoptosis was investigated by analyses of the apoptosis-inducing factors (AIF) and of the caspases 9 and 3 in INA-6 cells. INA-6 cells were treated with 0.6 μM of compound trans-7b for 8 hours prior to analyze nuclear translocation of AIF. Staining of the nuclear protein lamin A was used as a loading control. […] Analysis of cleavage of the bona fide caspase substrate PARP served as a control for caspase activation. Co-treatment with the pan-caspase inhibitor Z-VAD-FMK (50 μM) was employed as another specificity control.
Western Blot Analysis. Protein expression levels were determined with Western blotting procedures (M. Chatterjee, et al., Blood 2002, 100, 3311-3318). Following separation by SDS-PAGE, proteins were transferred onto nitrocellulose membranes (Schleicher & Schuell, Dassel, Germany) and stained with antibodies against Hsp72, Hsp73, Hsp90 (all from Enzo Life Science, Lörrach, Germany), AIF, lamin A, caspases 9 and 3, PARP (all from Santa Cruz, Heidelberg, Germany). […] According to an established HSP72/73-dependent client protein signature and its role for survival in MM, the proposed anti-HSP72/73 effect of trans-7b in the INA-6 multiple myeloma (MM) cell line model was evaluated. […] Lysates were cleared by centrifugation, measured by quantitative protein assay (Bio-Rad, München, Germany) and subjected to SDS gel electrophoresis. […]

COc1ccc(C2C(C(=O)Nc3cccc(C)n3)c3ccccc3C(=O)N2c2ccccc2)cc1 (stereo not drawn) [trans-7b, trans-3-(4-Methoxyphenyl)-N-(6-methylpyridin-2-yl)-1-oxo-2-phenyl-1,2,3,4-tetrahydroisoquinoline-4-carboxamide]
nuclear translocation of activated AIF: shifting from the cytosol to the nucleus
